# Source: ChEMBL document CHEMBL1201862, “PubChem BioAssay data set” (2004)
#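 Cells were grown in 96-well plates and exposed to each compound for 48 hours at five concentrations; endpoints were interpolated linearly between bracketing concentrations, or set to the highest concentration if not reached. GI50: concentration for 50% inhibition of growth.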 Activity calls are given as the source filed them. Rule as the data show it: active = GI50 up to about 1.1 µM and inactive = higher.
# Key:
# Assay in all cases: NCI-60 cell line screen, 48 h
# [1] = tested on: MDA-N
# [2] = tested on: NCI-H226
# [3] = tested on: NCI-H522
# [4] = tested on: NCI-H460
# [5] = tested on: MCF7
# [6] = tested on: SW-620
# [7] = tested on: KM12
# [8] = tested on: OVCAR-5
# [9] = tested on: TK-10
# [10] = tested on: UACC-62
# [11] = tested on: T47D
# [12] = tested on: SNB-19
# [13] = tested on: 786-0
# [14] = tested on: LOX IMVI
# [15] = tested on: BT-549
# [16] = tested on: SF-539
# [17] = tested on: UACC-257
# [18] = tested on: MOLT-4
# [19] = tested on: HOP-92
# [20] = tested on: MDA-MB-231
# [21] = tested on: IGROV-1
# [22] = tested on: HT-29
# [23] = tested on: CCRF-CEM
# [24] = tested on: HCT-116
# [25] = tested on: RPMI-8226
# [26] = tested on: U-251
# [27] = tested on: SR
# [28] = tested on: ACHN
# [29] = tested on: SF-295
# [30] = tested on: SF-268
# [31] = tested on: COLO 205
# [32] = tested on: HCT-15
# [33] = tested on: MDA-MB-435
# [34] = tested on: M14
# [35] = tested on: RXF 393
# [36] = tested on: HL-60
# [37] = tested on: SN12C
# [38] = tested on: SK-MEL-2
# [39] = tested on: SK-OV-3
# [40] = tested on: NCI/ADR-RES
# [41] = tested on: NCI-H23
# [42] = tested on: OVCAR-4
# [43] = tested on: EKVX
# [44] = tested on: Hs-578T
# [45] = tested on: DU-145
# [46] = tested on: UO-31
# [47] = tested on: CAKI-1
# [48] = tested on: OVCAR-8
# [49] = tested on: SNB-75
# [50] = tested on: OVCAR-3
# [51] = tested on: SK-MEL-5
# [52] = tested on: PC-3
# [53] = tested on: A498
# [54] = tested on: A549
# [55] = tested on: HCC 2998
# [56] = tested on: K562
# [57] = tested on: Malme-3M
# [58] = tested on: HOP-62
# [59] = tested on: SK-MEL-28
compound,measurement,setting,value
COc1cc2c(cc1O)-c1c(OC)c(O)cc3c1C(C2)N(C)CC3 (centres undefined),GI50,[1],> 100 µM (inactive)
same,GI50,[2],> 100 µM (inactive)
same,GI50,[3],> 100 µM (inactive)
same,GI50,[4],> 100 µM (inactive)
same,GI50,[5],> 100 µM (inactive)
same,GI50,[6],> 100 µM (inactive)
same,GI50,[7],> 100 µM (inactive)
same,GI50,[8],> 100 µM (inactive)
same,GI50,[9],> 100 µM (inactive)
same,GI50,[10],> 100 µM (inactive)
same,GI50,[11],> 100 µM (inactive)
same,GI50,[12],> 100 µM (inactive)
same,GI50,[13],> 100 µM (inactive)
same,GI50,[14],> 100 µM (inactive)
same,GI50,[15],> 100 µM (inactive)
same,GI50,[16],> 100 µM (inactive)
same,GI50,[17],> 100 µM (inactive)
same,GI50,[18],> 100 µM (inactive)
same,GI50,[19],> 100 µM (inactive)
same,GI50,[20],> 100 µM (inactive)
same,GI50,[21],> 100 µM (inactive)
same,GI50,[22],> 100 µM (inactive)
same,GI50,[23],> 100 µM (inactive)
same,GI50,[24],> 100 µM (inactive)
same,GI50,[25],> 100 µM (inactive)
same,GI50,[26],> 100 µM (inactive)
same,GI50,[27],> 100 µM (inactive)
same,GI50,[28],> 100 µM (inactive)
same,GI50,[29],> 100 µM (inactive)
same,GI50,[30],> 100 µM (inactive)
same,GI50,[31],> 100 µM (inactive)
same,GI50,[32],> 100 µM
same,GI50,[33],> 100 µM (inactive)
same,GI50,[34],> 100 µM (inactive)
same,GI50,[35],> 100 µM (inactive)
same,GI50,[36],> 100 µM (inactive)
same,GI50,[37],> 100 µM (inactive)
same,GI50,[38],> 100 µM (inactive)
same,GI50,[39],> 100 µM (inactive)
same,GI50,[40],> 100 µM (inactive)
same,GI50,[41],> 100 µM (inactive)
same,GI50,[42],> 100 µM (inactive)
same,GI50,[43],> 100 µM (inactive)
same,GI50,[44],> 100 µM (inactive)
same,GI50,[45],> 100 µM (inactive)
same,GI50,[46],> 100 µM (inactive)
same,GI50,[47],> 100 µM (inactive)
same,GI50,[48],> 100 µM (inactive)
same,GI50,[49],> 100 µM (inactive)
same,GI50,[50],> 100 µM (inactive)
same,GI50,[51],> 100 µM (inactive)
same,GI50,[52],> 100 µM (inactive)
same,GI50,[53],> 100 µM (inactive)
same,GI50,[54],> 100 µM (inactive)
CCc1n[nH]c(=O)n1N1C(=O)CCC1=O,GI50,[1],> 100 µM (inactive)
same,GI50,[55],> 100 µM (inactive)
same,GI50,[2],> 100 µM (inactive)
same,GI50,[3],> 100 µM (inactive)
same,GI50,[4],> 100 µM (inactive)
same,GI50,[5],> 100 µM (inactive)
same,GI50,[6],> 100 µM (inactive)
same,GI50,[7],> 100 µM (inactive)
same,GI50,[8],> 100 µM (inactive)
same,GI50,[9],> 100 µM (inactive)
same,GI50,[10],> 100 µM (inactive)
same,GI50,[11],> 100 µM (inactive)
same,GI50,[12],> 100 µM (inactive)
same,GI50,[56],> 100 µM (inactive)
same,GI50,[13],> 100 µM (inactive)
same,GI50,[14],> 100 µM (inactive)
same,GI50,[15],> 100 µM (inactive)
same,GI50,[17],> 100 µM (inactive)
same,GI50,[18],> 100 µM (inactive)
same,GI50,[20],> 100 µM (inactive)
same,GI50,[21],> 100 µM (inactive)
same,GI50,[22],> 100 µM (inactive)
same,GI50,[23],> 100 µM (inactive)
same,GI50,[24],> 100 µM (inactive)
same,GI50,[25],> 100 µM (inactive)
same,GI50,[26],> 100 µM (inactive)
same,GI50,[27],> 100 µM (inactive)
same,GI50,[28],> 100 µM (inactive)
same,GI50,[29],> 100 µM (inactive)
same,GI50,[30],> 100 µM (inactive)
same,GI50,[31],> 100 µM (inactive)
same,GI50,[32],> 100 µM
same,GI50,[33],> 100 µM (inactive)
same,GI50,[57],> 100 µM (inactive)
same,GI50,[34],> 100 µM (inactive)
same,GI50,[35],> 100 µM (inactive)
same,GI50,[58],> 100 µM (inactive)
same,GI50,[37],> 100 µM (inactive)
same,GI50,[38],> 100 µM (inactive)
same,GI50,[39],> 100 µM (inactive)
same,GI50,[40],> 100 µM (inactive)
same,GI50,[42],> 100 µM (inactive)
same,GI50,[43],> 100 µM (inactive)
same,GI50,[44],> 100 µM (inactive)
same,GI50,[59],> 100 µM (inactive)
same,GI50,[45],> 100 µM (inactive)
same,GI50,[46],> 100 µM (inactive)
same,GI50,[47],> 100 µM (inactive)
same,GI50,[48],> 100 µM (inactive)
same,GI50,[49],> 100 µM (inactive)
same,GI50,[50],> 100 µM (inactive)
same,GI50,[51],> 100 µM (inactive)
same,GI50,[52],> 100 µM (inactive)
same,GI50,[53],> 100 µM (inactive)
same,GI50,[54],> 100 µM (inactive)
